Measured values reported in patent US20230087439A1, “Nmr-Metabolite-Signature For Identifying Cancer Patients Resistant To Cdk4/6 Inhibitors, Endocrine Therapy and Anti-HER2 Therapy” (Olaris, inc., priority 2018, published 2023).
Values joined by “and” are separate entries in the source; they are usually repeats but may differ in a detail not shown here. Equal values may be shown once.

How the values were obtained:
[1] = system: adenoid cystic carcinomas of the salivary gland; settings: despite increased expression of c-kit; cited from earlier work
CYP2A6 = target: T1, CYP2A6 (Homo sapiens, UniProt P11509); settings: off-target effect; cited from earlier work
T1 sequence (P11509 1-494): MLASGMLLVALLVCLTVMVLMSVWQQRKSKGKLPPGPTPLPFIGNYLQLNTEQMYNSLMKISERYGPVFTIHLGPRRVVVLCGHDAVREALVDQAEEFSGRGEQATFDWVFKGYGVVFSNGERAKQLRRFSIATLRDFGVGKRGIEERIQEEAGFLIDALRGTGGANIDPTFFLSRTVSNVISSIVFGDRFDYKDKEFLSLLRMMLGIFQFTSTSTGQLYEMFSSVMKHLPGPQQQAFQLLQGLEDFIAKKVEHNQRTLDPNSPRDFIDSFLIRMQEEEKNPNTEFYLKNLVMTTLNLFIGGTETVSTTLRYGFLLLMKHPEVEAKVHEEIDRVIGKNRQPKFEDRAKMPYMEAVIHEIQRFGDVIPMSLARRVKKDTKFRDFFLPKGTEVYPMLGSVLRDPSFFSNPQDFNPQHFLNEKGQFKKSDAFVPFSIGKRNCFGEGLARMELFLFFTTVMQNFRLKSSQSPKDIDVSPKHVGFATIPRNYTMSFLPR

CYP2C19 = CYP2C19 (Homo sapiens, UniProt P33261); settings: off-target effect; cited from earlier work
ER+/HER2− metastatic BC = assay: Retrospective study: tumor response and survival of metastatic BC patients treated with CDK4/6 inhibitors; assay type: in vivo, human; settings: palbociclib N=10, ribociclib N=14; for Non-responders (NR): at least 20% increase in sum of diameters of target tumors after 6 months; for Responders (R): at least 30% decrease in sum of diameters of target tumors after 6 months
Description: Here we describe a retrospective study analyzing plasma-based metabolites from a baseline (BL) sample and after 2-months (2M) of treatment of 24 women with ER+/HER2− metastatic BC treated with CDK4/6 inhibitors, palbociclib or ribociclib.

Chain of CYP2C19 (P33261 whole entry): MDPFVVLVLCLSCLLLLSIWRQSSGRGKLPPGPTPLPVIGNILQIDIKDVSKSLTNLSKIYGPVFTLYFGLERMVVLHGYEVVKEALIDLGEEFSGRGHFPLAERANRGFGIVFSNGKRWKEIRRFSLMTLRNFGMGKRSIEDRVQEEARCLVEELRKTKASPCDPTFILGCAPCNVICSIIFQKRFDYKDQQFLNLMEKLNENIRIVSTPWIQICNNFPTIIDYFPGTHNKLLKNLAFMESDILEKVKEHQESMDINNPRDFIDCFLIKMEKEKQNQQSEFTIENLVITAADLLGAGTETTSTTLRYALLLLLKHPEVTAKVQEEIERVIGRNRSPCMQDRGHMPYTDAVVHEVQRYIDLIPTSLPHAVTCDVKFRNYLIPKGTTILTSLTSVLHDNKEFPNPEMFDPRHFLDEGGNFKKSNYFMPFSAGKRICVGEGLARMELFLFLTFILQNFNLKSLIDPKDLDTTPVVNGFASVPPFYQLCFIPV

Cc1ccc(NC(=O)c2ccc(CN3CCN(C)CC3)cc2)cc1Nc1nccc(-c2cccnc2)n1 [imatinib]
effect on adenoid cystic carcinomas of the salivary gland [1]: no effect

N#Cc1ccc(C(c2ccc(C#N)cc2)n2cncn2)cc1 [letrozole]
inhibition of CYP2A6 (CYP2A6): inhibits
inhibition of CYP2C19 (CYP2C19): inhibits

CN(C)C(=O)c1cc2cnc(Nc3ccc(N4CCNCC4)cn3)nc2n1C1CCCC1 [ribociclib]
Non-responders (NR) (ER+/HER2− metastatic BC): 7 patients and 6 patients
Responders (R) (ER+/HER2− metastatic BC): 8

CC(=O)c1c(C)c2cnc(Nc3ccc(N4CCNCC4)cn3)nc2n(C2CCCC2)c1=O [palbociclib]
Non-responders (NR) (ER+/HER2− metastatic BC): 3 patients
Responders (R) (ER+/HER2− metastatic BC): 7
